Measurements published in patent US11203591B2, “Substituted 6-azabenzimidazole compounds” (Gilead Sciences, Inc., priority 2018, dated 2021).

The compounds below were run against human HPK1 (MAP4K1) (Homo sapiens (Human), UniProt Q92918) (assay: HPK1 IC50 Assay (TR-FRET peptide phosphorylation)). Conditions: 0.15 nM HPK1, 10 μM ATP, 1 μM STK S1 peptide substrate; geometric mean.
Format: biochemical
How it was run: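 Pre-activated, dually phosphorylated baculovirus-expressed HPK1 kinase domain (0.15 nM) preincubated 15 min with compound, then reacted 3 h at 25° C with 10 μM ATP and 1 μM STK S1 peptide in BES pH 7.0 buffer. Phosphopeptide read by TR-FRET (665/620 nm); four-parameter fit, geometric-mean IC50.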

human HPK1 (MAP4K1), sequence (Q92918 17-274): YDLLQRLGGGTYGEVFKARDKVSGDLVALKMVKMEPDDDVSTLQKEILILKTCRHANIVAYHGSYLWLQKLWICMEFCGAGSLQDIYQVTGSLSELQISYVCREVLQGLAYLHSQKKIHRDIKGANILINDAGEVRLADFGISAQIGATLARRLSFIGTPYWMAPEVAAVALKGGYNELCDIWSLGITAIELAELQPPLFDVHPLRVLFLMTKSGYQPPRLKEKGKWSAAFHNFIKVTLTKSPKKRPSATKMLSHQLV

Row | IC50 [nM] | SMILES
1 | 0.08 | CC(C)n1cnc2cc(-c3cc4c(nc3F)C(C)(C)C(=O)N4[C@H]3C[C@@](C)(N4CCCCC4)C3)nc(Nc3cc(C(=O)NC4(C(F)F)CC4)c(Cl)c(F)c3F)c21 [Example 291, 2-chloro-N-(1-(difluoromethyl)cyclopropyl)-3,4-difluoro-5-((6-(5-fluoro-3,3-dimethyl-1-((1s,3s)-3-methyl-3-(piperidin-1-yl)cyclobutyl)-2-oxo-2,3-dihydro-1H-pyrrolo[3,2-b]pyridin-6-yl)-3-isopropyl-3H-imidazo[4,5-c]pyridin-4-yl)amino)benzamide]
2 | 0.1 | CC(C)NC(=O)c1cc(Nc2nc(-c3cnc4c(c3)N([C@H]3C[C@@](C)(N5CCCCC5)C3)C(=O)C4(C)C)cc3ncn(C(C)C)c23)c(F)c(F)c1Cl [Example 267, 2-chloro-5-((6-(3,3-dimethyl-1-((1s,3s)-3-methyl-3-(piperidin-1-yl)cyclobutyl)-2-oxo-2,3-dihydro-1H-pyrrolo[3,2-b]pyridin-6-yl)-3-isopropyl-3H-imidazo[4,5-c]pyridin-4-yl)amino)-3,4-difluoro-N-isopropylbenzamide]

Same assay, conditions: recombinant HPK1 kinase domain 0.15 nM, 10 μM ATP, 1 μM STK S1 peptide; geometric mean of multiple experiments

Row | SMILES | IC50 [nM]
3 | Cc1c(C(=O)NC2(C(F)F)CC2)cc(Nc2nc(-c3cnc4c(c3)N(C3CC(C)(N5CCC6C[C@H]5CO6)C3)C(=O)C4(C)C)cc3ncn(C(C)C)c23)c(F)c1F (stereo partly shown) [Example 192, 5-((6-(1-((1s,3s)-3-(6-oxa-2-azabicyclo[3.2.1]octan-2-yl)-3-methylcyclobutyl)-3,3-dimethyl-2-oxo-2,3-dihydro-1H-pyrrolo[3,2-b]pyridin-6-yl)-3-isopropyl-3H-imidazo[4,5-c]pyridin-4-yl)amino)-N-(1-(difluoromethyl)cyclopropyl)-3,4-difluoro-2-methylbenzamide] | 0.1
4 | CNC(=O)c1cc(Nc2nc(-c3ccc4c(c3)N([C@H]3C[C@@H](N5CCCCC5)C3)C(=O)C43CCN(C(C)=O)CC3)cc3ncn(C(C)C)c23)ccc1C [Example 46] | 0.1
5 | CC(C)n1cnc2cc(-c3cnc4c(c3)N([C@H]3C[C@@](C)(N5CCCCCC5)C3)C(=O)C4(C)C)nc(Nc3cc(C(=O)NC4(C(F)F)CC4)c(Cl)c(F)c3F)c21 [Example 226, 5-((6-(1-((1s,3s)-3-(Azepan-1-yl)-3-methylcyclobutyl)-3,3-dimethyl-2-oxo-2,3-dihydro-1H-pyrrolo[3,2-b]pyridin-6-yl)-3-isopropyl-3H-imidazo[4,5-c]pyridin-4-yl)amino)-2-chloro-N-(1-(difluoromethyl)cyclopropyl)-3,4-difluorobenzamide] | 0.1
6 | Cc1ccc(Nc2nc(-c3ccc4c(c3)N([C@H]3C[C@@H](N5CCCCC5)C3)C(=O)C43CCN(CC(F)F)CC3)cc3ncn(C(C)C)c23)cc1C(=O)NC(C)C [Example 62] | 0.1
7 | Cc1ccc(Nc2nc(-c3ccc4c(c3)N([C@H]3C[C@@H](N5CC(C)(C)C5)C3)C(=O)C4(C)C)cc3ncn(C(C)C)c23)cc1C(=O)NC1CC1 [Example 121] | 0.1
8 | CNC(=O)c1cc(Nc2nc(-c3ccc4c(c3)N([C@H]3C[C@@H](N5CCCCC5)C3)C(=O)C43CCN(C4COC4)CC3)cc3ncn(C4CC4)c23)ccc1C [Example 173] | 0.08
9 | CNC(=O)c1cc(Nc2nc(-c3cnc4c(c3)N([C@H]3C[C@@H](N5CCCCC5)C3)C(=O)C4(C)C)cc3ncn(C(C)C)c23)ccc1C [Example 18] | 0.4
10 | CCNC(=O)c1cc(Nc2nc(-c3ccc4c(c3)N([C@H]3C[C@@H](N5CCCCC5)C3)C(=O)C43CN(C(C)=O)C3)cc3ncn(C(C)C)c23)c(F)cc1C [Example 178] | 0.3
11 | CNC(=O)c1cc(Nc2nc(-c3ccc4c(c3)N([C@H]3C[C@@H](N5CCC(C)(C)C5)C3)C(=O)C43CCN(C(C)=O)CC3)cc3ncn(C(C)C)c23)ccc1C [Example 165] | 0.1
12 | CNC(=O)c1cc(Nc2nc(-c3ccc4c(c3)N([C@H]3C[C@@H](N5CCCCC5)C3)C(=O)C43CCOCC3)cc3ncn(C(C)C)c23)ccc1C [Example 123] | 0.1
13 | Cc1c(C(=O)NC2(C(F)F)CC2)cc(Nc2nc(-c3cnc4c(c3)N(C3CC(C)(N5CCC6C[C@@H]6C5)C3)C(=O)C4(C)C)cc3ncn(C(C)C)c23)c(F)c1F (stereo partly shown) [Example 231, 5-((6-(1-((1s,3s)-3-(3-Azabicyclo[4.1.0]heptan-3-yl)-3-methylcyclobutyl)-3,3-dimethyl-2-oxo-2,3-dihydro-1H-pyrrolo[3,2-b]pyridin-6-yl)-3-isopropyl-3H-imidazo[4,5-c]pyridin-4-yl)amino)-N-(1-(difluoromethyl)cyclopropyl)-3,4-difluoro-2-methylbenzamide] | 0.1
14 | CCNC(=O)c1cc(Nc2nc(-c3ccc4c(c3)N([C@H]3C[C@@H](N5CCC[C@@H](F)C5)C3)C(=O)C43CCN(C4COC4)CC3)cc3ncn(C(C)C)c23)c(F)cc1C [Example 171] | 0.2
15 | CNC(=O)c1cc(Nc2nc(-c3ccc4c(c3)N([C@H]3C[C@@H](N5CCCCC5)C3)C(=O)C43CCN(C(C)=O)CC3)cc3ncn(C4CC4)c23)ccc1C [Example 58a] | 0.1
16 | CC[C@H](C)n1cnc2cc(-c3ccc4c(c3)N([C@H]3C[C@@H](N5CCC[C@@H](F)C5)C3)C(=O)C4(C)C)nc(Nc3cc(C(=O)NC)c(C)cc3F)c21 [Example 113] | 0.1
17 | CNC(=O)c1cc(Nc2nc(-c3ccc4c(c3)N([C@H]3C[C@@H](N5CCCCC5)C3)C(=O)C43CCN(C(=O)C(C)(C)O)CC3)cc3ncn(C(C)C)c23)ccc1C [Example 146, 5-((6-(1′-(2-hydroxy-2-methylpropanoyl)-2-oxo-1-((1s,3s)-3-(piperidin-1-yl)cyclobutyl)spiro[indoline-3,4′-piperidin]-6-yl)-3-isopropyl-3H-imidazo[4,5-c]pyridin-4-yl)amino)-N,2-dimethylbenzamide] | 0.1

Results, then the compound that gave them:

Row | IC50 [nM] | SMILES
18 | 0.1 | CC(C)n1cnc2cc(-c3cnc4c(c3)N([C@H]3C[C@@](C)(N5CC[C@@H](F)C5)C3)C(=O)C4(C)C)nc(Nc3cc(C(=O)NC4(C(F)F)CC4)c(Cl)c(F)c3F)c21 [Example 200, 2-Chloro-N-(1-(difluoromethyl)cyclopropyl)-3,4-difluoro-5-((6-(1-((1S,3s)-3-((R)-3-fluoropyrrolidin-1-yl)-3-methylcyclobutyl)-3,3-dimethyl-2-oxo-2,3-dihydro-1H-pyrrolo[3,2-b]pyridin-6-yl)-3-isopropyl-3H-imidazo[4,5-c]pyridin-4-yl)amino)benzamide]
19 | 0.09 | CC(C)n1cnc2cc(-c3cnc4c(c3)N(C3CC(C)(N5CCC6C[C@@H]6C5)C3)C(=O)C4(C)C)nc(Nc3cc(C(=O)NC4(C(F)F)CC4)c(Cl)c(F)c3F)c21 (stereo partly shown) [Example 261, 5-((6-(1-((1s,3s)-3-(3-azabicyclo[4.1.0]heptan-3-yl)-3-methylcyclobutyl)-3,3-dimethyl-2-oxo-2,3-dihydro-1H-pyrrolo[3,2-b]pyridin-6-yl)-3-isopropyl-3H-imidazo[4,5-c]pyridin-4-yl)amino)-2-chloro-N-(1-(difluoromethyl)cyclopropyl)-3,4-difluorobenzamide]
20 | 0.1 | CNC(=O)c1cc(Nc2nc(-c3ccc4c(c3)N([C@H]3C[C@@H](N5CCC(C)(C)C5)C3)C(=O)C4(C)C)cc3ncn(C(C)C)c23)ccc1C [Example 3]
21 | 0.1 | Cc1ccc(Nc2nc(-c3ccc4c(c3)N([C@H]3C[C@@H](N5CCCCC5)C3)C(=O)C4(C)C)cc3ncn(C(C)C)c23)cc1C(=O)NC1CCC1 [Example 2]
22 | 0.1 | Cc1ccc(Nc2nc(-c3ccc4c(c3)N([C@H]3C[C@@H](N5CCCCC5)C3)C(=O)C4(C)C)cc3ncn(C(C)C)c23)cc1C(=O)NCC(C)(F)F [Example 28]
23 | 0.1 | CC(C)n1cnc2cc(-c3ccc4c(c3)N([C@H]3C[C@@](C)(N5CCCCC5)C3)C(=O)C4(C)C)nc(Nc3cc(C(=O)NC4(C(F)F)CC4)c(Cl)c(F)c3F)c21 [Example 241, 2-Chloro-N-(1-(difluoromethyl)cyclopropyl)-5-((6-(3,3-dimethyl-1-((1s,3s)-3-methyl-3-(piperidin-1-yl)cyclobutyl)-2-oxoindolin-6-yl)-3-isopropyl-3H-imidazo[4,5-c]pyridin-4-yl)amino)-3,4-difluorobenzamide]
24 | 0.05 | CCNC(=O)c1cc(Nc2nc(-c3cnc4c(c3)N([C@H]3C[C@@](C)(N5CCCCCC5)C3)C(=O)C4(C)C)cc3ncn(C(C)C)c23)c(F)c(F)c1Cl [Example 247, 5-((6-(1-((1s,3s)-3-(azepan-1-yl)-3-methylcyclobutyl)-3,3-dimethyl-2-oxo-2,3-dihydro-1H-pyrrolo[3,2-b]pyridin-6-yl)-3-isopropyl-3H-imidazo[4,5-c]pyridin-4-yl)amino)-2-chloro-N-ethyl-3,4-difluorobenzamide]
25 | 0.07 | CC(C)n1cnc2cc(-c3cnc4c(c3)N([C@H]3C[C@@](C)(N5CCCCC5)C3)C(=O)C4(C)C)nc(Nc3cc(C(=O)NC4(C(F)F)CC4)cc(F)c3F)c21 [Example 242, N-(1-(difluoromethyl)cyclopropyl)-3-((6-(3,3-dimethyl-1-((1s,3s)-3-methyl-3-(piperidin-1-yl)cyclobutyl)-2-oxo-2,3-dihydro-1H-pyrrolo[3,2-b]pyridin-6-yl)-3-isopropyl-3H-imidazo[4,5-c]pyridin-4-yl)amino)-4,5-difluorobenzamide]
26 | 0.04 | Cc1ccc(Nc2nc(-c3ccc4c(c3)N([C@H]3C[C@@H](N5CCC[C@@H](F)C5)C3)C(=O)C4(C)C)cc3ncn(C4CC4)c23)cc1C(N)=O [Example 17]
27 | 0.07 | CNC(=O)c1cc(Nc2nc(-c3ccc4c(c3)N([C@H]3C[C@@H](N5CCCCC5)C3)C(=O)C43CCN(C(=O)C45CC(C4)C5)CC3)cc3ncn(C4CC4)c23)ccc1Cl [Example 41]
28 | 0.07 | CC(C)n1cnc2cc(-c3cnc4c(c3)N([C@H]3C[C@@](C)(N5CCCC6(CC6)C5)C3)C(=O)C4(C)C)nc(Nc3cc(C(=O)NC4(C(F)F)CC4)c(Cl)c(F)c3F)c21 [Example 203, 2-Chloro-N-(1-(difluoromethyl)cyclopropyl)-5-((6-(3,3-dimethyl-1-((1s,3s)-3-methyl-3-(5-azaspiro[2.5]octan-5-yl)cyclobutyl)-2-oxo-2,3-dihydro-1H-pyrrolo[3,2-b]pyridin-6-yl)-3-isopropyl-3H-imidazo[4,5-c]pyridin-4-yl)amino)-3,4-difluorobenzamide]
